Reference: publication PMC4579064 (Toxicology and applied pharmacology, 2015)

Legend:
CYP2A6 = molecular target: T1, CYP2A6 (Homo sapiens, UniProt P11509); experiment: recombinant CYP activity with fluorogenic substrate; assay type: biochemical
T1 sequence (P11509 1-494): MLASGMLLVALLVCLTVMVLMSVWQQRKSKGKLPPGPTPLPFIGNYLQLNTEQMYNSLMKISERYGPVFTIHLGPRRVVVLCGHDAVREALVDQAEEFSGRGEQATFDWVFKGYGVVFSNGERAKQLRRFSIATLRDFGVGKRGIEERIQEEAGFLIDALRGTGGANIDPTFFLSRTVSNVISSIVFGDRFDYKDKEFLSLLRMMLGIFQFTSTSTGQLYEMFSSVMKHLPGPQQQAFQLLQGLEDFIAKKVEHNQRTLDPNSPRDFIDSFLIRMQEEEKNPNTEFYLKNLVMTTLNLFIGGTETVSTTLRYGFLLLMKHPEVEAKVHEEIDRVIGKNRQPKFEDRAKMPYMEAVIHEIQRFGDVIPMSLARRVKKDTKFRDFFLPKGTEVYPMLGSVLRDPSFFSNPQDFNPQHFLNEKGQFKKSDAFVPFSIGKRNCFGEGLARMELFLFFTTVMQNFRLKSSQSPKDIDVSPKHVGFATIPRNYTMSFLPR

CYP2C9 = CYP2C9 (Homo sapiens, UniProt P11712); experiment: as above; assay type: biochemical
CYP2C19 = CYP2C19 (Homo sapiens, UniProt P33261); experiment: as above; assay type: biochemical
recombinant human CPR = molecular target: T2, recombinant human CPR (Homo sapiens, UniProt P16435); experiment: CPR-mediated redox cycling, H2O2 formation; assay type: biochemical; conditions: menadione as redox cycling substrate of CPR; Amplex Red
T2 sequence (P16435 1-677): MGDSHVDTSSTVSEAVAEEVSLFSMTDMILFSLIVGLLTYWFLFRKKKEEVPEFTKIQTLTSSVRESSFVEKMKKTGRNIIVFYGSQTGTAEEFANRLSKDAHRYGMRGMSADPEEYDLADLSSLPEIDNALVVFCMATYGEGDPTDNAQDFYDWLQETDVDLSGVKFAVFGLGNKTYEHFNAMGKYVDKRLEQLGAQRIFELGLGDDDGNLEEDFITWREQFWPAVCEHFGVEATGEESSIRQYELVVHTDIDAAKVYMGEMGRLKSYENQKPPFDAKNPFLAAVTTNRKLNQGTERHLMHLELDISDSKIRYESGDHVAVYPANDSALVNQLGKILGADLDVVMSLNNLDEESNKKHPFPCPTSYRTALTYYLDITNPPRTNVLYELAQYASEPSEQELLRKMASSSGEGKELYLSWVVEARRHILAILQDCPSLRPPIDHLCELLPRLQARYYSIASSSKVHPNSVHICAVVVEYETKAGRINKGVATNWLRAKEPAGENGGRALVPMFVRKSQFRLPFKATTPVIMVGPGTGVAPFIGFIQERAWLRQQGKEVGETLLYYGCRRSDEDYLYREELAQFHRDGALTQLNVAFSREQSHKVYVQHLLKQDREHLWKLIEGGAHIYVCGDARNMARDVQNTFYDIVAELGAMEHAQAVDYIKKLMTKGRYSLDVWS

[1] = assay type: in vivo, rat; conditions: menadione 20 min after parathion; 60 min
CYP2B6 = molecular target: T3, CYP2B6 (Homo sapiens, UniProt P20813)
T3 sequence (P20813 1-491): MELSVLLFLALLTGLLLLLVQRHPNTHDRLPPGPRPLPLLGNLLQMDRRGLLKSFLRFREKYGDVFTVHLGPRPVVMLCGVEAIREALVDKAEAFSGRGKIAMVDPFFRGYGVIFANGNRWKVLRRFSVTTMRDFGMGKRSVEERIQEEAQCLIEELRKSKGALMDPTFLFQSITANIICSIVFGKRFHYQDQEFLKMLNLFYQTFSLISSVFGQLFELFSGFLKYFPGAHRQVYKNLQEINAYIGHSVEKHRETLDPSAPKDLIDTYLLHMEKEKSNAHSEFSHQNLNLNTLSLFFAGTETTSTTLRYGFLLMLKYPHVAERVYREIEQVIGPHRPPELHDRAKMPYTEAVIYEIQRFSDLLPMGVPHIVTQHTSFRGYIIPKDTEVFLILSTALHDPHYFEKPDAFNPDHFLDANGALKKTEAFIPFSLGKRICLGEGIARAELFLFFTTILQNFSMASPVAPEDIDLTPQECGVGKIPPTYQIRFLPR

CYP3A4 = CYP3A4 (Homo sapiens, UniProt P08684)
female Long-Evans rats = conditions: menadione 40 mg/kg ip 20 min after parathion 8 mg/kg oral

Chain of CYP2C9 (P11712 whole entry, one chain of several): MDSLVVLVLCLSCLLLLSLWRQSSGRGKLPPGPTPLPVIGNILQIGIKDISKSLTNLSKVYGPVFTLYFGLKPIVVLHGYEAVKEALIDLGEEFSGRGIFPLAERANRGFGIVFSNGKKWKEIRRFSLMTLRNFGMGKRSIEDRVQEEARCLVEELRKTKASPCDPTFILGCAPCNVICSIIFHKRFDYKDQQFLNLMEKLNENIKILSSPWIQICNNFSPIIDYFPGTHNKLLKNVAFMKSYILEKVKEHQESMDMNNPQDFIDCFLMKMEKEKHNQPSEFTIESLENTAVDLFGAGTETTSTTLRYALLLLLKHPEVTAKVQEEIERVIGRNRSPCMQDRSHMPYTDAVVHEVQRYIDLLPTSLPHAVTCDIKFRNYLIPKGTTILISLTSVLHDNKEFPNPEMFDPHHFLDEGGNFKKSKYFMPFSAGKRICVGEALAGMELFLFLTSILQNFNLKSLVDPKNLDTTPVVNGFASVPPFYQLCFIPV
Chain of CYP3A4 (P08684 2-503 limits assumed): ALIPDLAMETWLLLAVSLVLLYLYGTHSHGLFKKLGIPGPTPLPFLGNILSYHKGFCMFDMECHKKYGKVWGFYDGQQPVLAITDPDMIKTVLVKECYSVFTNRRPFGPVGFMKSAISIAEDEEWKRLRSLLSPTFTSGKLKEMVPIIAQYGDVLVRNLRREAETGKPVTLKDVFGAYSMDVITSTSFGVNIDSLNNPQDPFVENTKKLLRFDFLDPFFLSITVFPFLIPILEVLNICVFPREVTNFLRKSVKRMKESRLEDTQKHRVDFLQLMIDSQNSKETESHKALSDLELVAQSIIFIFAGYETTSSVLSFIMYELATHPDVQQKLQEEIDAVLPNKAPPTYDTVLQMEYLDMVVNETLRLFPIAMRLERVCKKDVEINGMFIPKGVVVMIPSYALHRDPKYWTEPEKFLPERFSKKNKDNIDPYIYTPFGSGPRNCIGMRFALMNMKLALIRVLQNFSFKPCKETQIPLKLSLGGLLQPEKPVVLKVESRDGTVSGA
Chain of CYP2C19 (P33261 whole entry, one chain of several): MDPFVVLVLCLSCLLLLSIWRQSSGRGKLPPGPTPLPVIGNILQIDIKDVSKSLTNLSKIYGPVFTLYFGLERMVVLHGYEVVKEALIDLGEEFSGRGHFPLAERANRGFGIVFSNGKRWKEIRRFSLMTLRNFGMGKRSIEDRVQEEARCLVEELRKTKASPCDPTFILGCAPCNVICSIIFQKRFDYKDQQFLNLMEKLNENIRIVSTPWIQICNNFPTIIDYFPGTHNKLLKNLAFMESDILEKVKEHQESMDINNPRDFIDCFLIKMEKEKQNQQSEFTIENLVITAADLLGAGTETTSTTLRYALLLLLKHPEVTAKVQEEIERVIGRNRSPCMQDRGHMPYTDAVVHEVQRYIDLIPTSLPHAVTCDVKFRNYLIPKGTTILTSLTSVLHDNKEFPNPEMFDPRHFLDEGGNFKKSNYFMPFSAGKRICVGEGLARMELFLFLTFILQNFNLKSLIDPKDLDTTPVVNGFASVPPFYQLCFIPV

Compound `CC1=CC(=O)c2ccccc2C1=O` [menadione, 2-methylnaphthalene-1,4-dione] has an IC50 (CYP2A6) of 8.01 ± 0.62 µM, an IC50 (CYP2C9) of 8.91 ± 0.57 µM and an IC50 (CYP2C19) of 8.51 ± 0.38 µM. For the same compound, the “Vmax for H2O2 formation” value (recombinant human CPR) was 4.4 µmol/min/mg CPR protein, the “liver levels of parathion” value [1] was “without altering” and the parathion in blood [1] was “striking increase”. For the same compound, the “serum and brain parathion levels” value [1] was “significant increases”, the paraoxon formation (CYP2B6) was “marked decrease” and the paraoxon formation (CYP3A4) was “marked decrease”. For the same compound, the “parathion toxicity (startle response, tremulous jaw movement, tremors and convulsions)” value (female Long-Evans rats) was “marked reduction”.
